Laboratory results: patent US20220218667A1, “DUAL INHIBITORS OF SOLUBLE EPOXIDE HYDROLASE AND METHODS OF USE THEREOF” (OROX Biosciences, Inc., priority 2019, published 2022)
“Also recorded” adds a separate entry of the source.

Tests used:
[1] = system: C57B/L6 mice exposed to bleomycin; assay: Example 1: prophylactic treatment of mice exposed to bleomycin (IPF model); assay type: in vivo, mouse; details: OX1, OX3, Nintedanib 30 mg/kg QD, Pirfenidone 100 mg/kg BID
Description: 4-(5-phenyl-3-{3-[3-(4-trifluoromethyl-phenyl)-ureido]-propyl}-pyrazol-1-yl)-benzenesulfonamide (PTUPB) [termed OX1] was compared to Pirfenidone, Nintedanib, and GSK225629415 [termed OX3] for treatment of IPF using an established model for IPF treating, which is prophylactic treatment of mice exposed to the chemotherapeutic agent bleomycin. […] Pirfenidone and Nintedanib are standard of care for the treatment of idiopathic pulmonary fibrosis and served as reference compounds in the experiment.
C57B/L6 mice were used in the experiments. When used, Bleomycin was administered intra-oropharyngeally, 1.5 U/kg, QD per established protocol. The test articles were dosed via oral gavage in 200 μL/day vehicle. The doses and formulations of test articles were selected based on the literature describing the lowest doses capable of eliciting pharmacological action.
Animals were dosed with the test articles (or vehicle) starting at day −1 to day 20. On day 1, daily doses of Bleomycin commenced in all but group 1 (negative control) which received the vehicle. On day 21, all animals were weighed and sacrificed. After lungs and bronco-alveolar lavage fluid (BALF) were harvested, they were prepared according to standard procedures for further analysis and histology. All animals were assessed twice a week for body weight and overall appearance. Efficacy endpoints measured in this study included lung weight, total leukocytes, and histology as determined by Mason's Trichrome stain and scored using a modified Ashcroft score.
The following parameters were measured in bronchoalveolar fluid (BALF): 1) soluble collagen and 2) differential leukocyte counts for different leukocyte populations.
After weighing and removal of BALF from the lungs, they were inflated and fixed using 10% neutral buffered formalin for histopathology analysis. Fifty-four formalin-fixed lung samples from mice were submitted to HistoTox Labs and were processed routinely. Two slides from each block were sectioned and stained with hematoxylin and eosin (H&E) or Masson's trichrome. Glass slides were evaluated with light microscopy by a board-certified veterinary pathologist. Lung sections were scored according to the modified Ashcroft scale.

COX-2 = biological target: T1, COX-2 (Homo sapiens, UniProt P35354); assay: COX-2 inhibition IC50, COX Fluorescent Inhibitor Screening Assay; assay type: biochemical
T1 construct: purchased Cayman Chemical 700100
T1 sequence (P35354 18-604): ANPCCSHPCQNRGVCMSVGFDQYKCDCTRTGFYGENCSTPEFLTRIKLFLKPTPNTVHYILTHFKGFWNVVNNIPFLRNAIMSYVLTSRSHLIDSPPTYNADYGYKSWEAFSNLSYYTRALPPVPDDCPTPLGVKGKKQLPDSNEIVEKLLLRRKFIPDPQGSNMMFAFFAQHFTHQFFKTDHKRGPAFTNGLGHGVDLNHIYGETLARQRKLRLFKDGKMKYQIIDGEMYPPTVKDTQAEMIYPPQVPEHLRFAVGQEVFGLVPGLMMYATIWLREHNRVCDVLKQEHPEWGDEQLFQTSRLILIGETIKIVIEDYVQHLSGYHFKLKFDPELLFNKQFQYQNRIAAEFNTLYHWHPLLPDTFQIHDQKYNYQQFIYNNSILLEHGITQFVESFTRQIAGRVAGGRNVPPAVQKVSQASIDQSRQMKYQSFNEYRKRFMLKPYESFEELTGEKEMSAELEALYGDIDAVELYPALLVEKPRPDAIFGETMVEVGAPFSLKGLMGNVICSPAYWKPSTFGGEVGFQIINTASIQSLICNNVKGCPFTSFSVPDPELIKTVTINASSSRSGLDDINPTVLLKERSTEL
Procedure: A COX Fluorescent Inhibitor Screening Assay Kit (catalog number 700100, Cayman Chemical, Ann Arbor, Mich.) is useful for assaying the ability of the compounds provided herein to inhibit ovine COX-1 and human recombinant COX-2 (% inhibition at 100 μM and IC50 values (M), respectively). Stock solutions of test compounds are dissolved in a minimum volume of DMSO. 10 μl of various concentrations of the test compound solutions, e.g., [I]final between 0.01 and 100 μM, are added to a series of supplied reaction buffer solutions (150 μl, 100 mM Tris-HCl, pH 8.0) with either COX-1 or COX-2 (10 μl) enzyme in the presence of Heme (10 μl) and a fluorometric substrate (10 μl). The reactions are initiated by quickly adding 10 μl of arachidonic acid solution and then incubating the system for two minutes at room temperature. Fluorescence of resorufin, which is produced by the reaction between PGG2 and fluorometric substrate, ADHP (10-acetyl-3,7-dihydroxyphenoxazine), is analyzed with an excitation wavelength of 535 nm and an emission wavelength of 590 nm. The intensity of this fluorescence is proportional to the amount of resorufin, which is proportional to the amount of PGG2 present in the well during the incubation. Percent inhibition is calculated by comparison from the 100% initial activity sample value (no inhibitor).

human sEH = biological target: T2, human sEH (Homo sapiens, UniProt P34913); assay: sEH inhibition IC50, fluorescent-based assay with purified recombinant sEH; assay type: biochemical; details: in vitro, relative to OX1
T2 sequence (P34913 1-555): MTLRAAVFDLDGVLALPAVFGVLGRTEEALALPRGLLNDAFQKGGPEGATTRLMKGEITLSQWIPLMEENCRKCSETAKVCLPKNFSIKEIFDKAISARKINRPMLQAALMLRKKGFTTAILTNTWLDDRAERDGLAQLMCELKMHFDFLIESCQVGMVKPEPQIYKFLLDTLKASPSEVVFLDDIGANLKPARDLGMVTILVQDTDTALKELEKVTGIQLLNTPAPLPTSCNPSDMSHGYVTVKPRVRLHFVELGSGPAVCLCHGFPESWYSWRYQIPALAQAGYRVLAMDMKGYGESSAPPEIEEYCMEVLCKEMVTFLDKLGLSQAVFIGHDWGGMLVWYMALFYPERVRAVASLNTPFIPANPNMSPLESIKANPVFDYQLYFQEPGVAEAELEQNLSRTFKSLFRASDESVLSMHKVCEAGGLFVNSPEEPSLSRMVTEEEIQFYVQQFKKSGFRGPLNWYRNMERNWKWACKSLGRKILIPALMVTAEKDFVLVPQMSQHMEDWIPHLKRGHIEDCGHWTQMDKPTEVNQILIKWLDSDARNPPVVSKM
Procedure: sEH inhibition IC50 values for the compounds presented herein can be assayed by a recombinant affinity assay using purified sEHs, from human, mouse or rat, in a fluorescent-based assay. In such an assay, enzymes, e.g., ˜1 nM human sEH, are incubated with a potential inhibitors for 5 min in 25 mM Bis-Tris/HCl buffer (200 μL; pH 7.0) at 30° C. before a substrate, e.g., cyano(2-methoxynaphthalen-6-yl)methyl trans-(3-phenyl-oxyran-2-yl)methyl carbonate, (CMNPC) is added ([S]final=5 μM).

[2] = day 21, compared to vehicle (Group 2)

CNc1nc(C)nc(N[C@H]2CCC[C@@H](C(=O)NCc3ccc(C#N)cc3C(F)(F)F)C2)n1 [OX3]
body weight course over 21 days ([1]; bleomycin mice, oral gavage day -1 to 20): lost the least weight; also recorded: sustained weight loss | neutrophil migration into BALF ([1]; day 21, oral): somewhat effective | number of lymphocytes in BALF ([1]; day 21, oral): trend increasingly lower | number of macrophages in BALF ([1]; day 21, oral): more macrophages | total cell (leukocyte) count in BALF ([1]; day 21, oral): did not demonstrate the same level of reduction | increased collagen (fibrosis) score, trichrome [1, 2]: slightly lower | mean Ashcroft score (lung histology) [1, 2]: slightly lower | mean score for mixed peribronchiolar/perivascular inflammation [1, 2]: lower | IC50 (COX-2): > 1000 nM | times less potent on COX-2 than OX1 (COX-2; in vitro, relative to OX1): at least 10 times | fold more potent against sEH than OX1 (human sEH): roughly 75 fold
